Laboratory results reported in ChEMBL document CHEMBL2417472, “Synthesis and biological evaluation of novel benzyl-substituted (S)-phenylalanine derivatives as potent dipeptidyl peptidase 4 inhibitors” (Bioorg Med Chem, 2013).

Legend:
Rattus norvegicus [1] = species: Rattus norvegicus; test: animal or person; conditions: Sprague-Dawley, po, read-out: INH
Rattus norvegicus [2] = species: Rattus norvegicus; test: animal or person; conditions: Sprague-Dawley, po, read-out: INH; remark: listed apart in the source
Rattus norvegicus [3] = test: Antidiabetic activity in po dosed Sprague-Dawley rat assessed as inhibition of glucose excursion administered 30 mins prior glucose challenge measured over 30 to 120 mins post challenge by OGTT; type: functional, organism-based
Rattus norvegicus [4] = species: Rattus norvegicus; test: animal or person; conditions: Sprague-Dawley, po, read-out: INH; remark: listed apart in the source

N#C[C@@H]1CCCN1C(=O)[C@@H](N)Cc1ccc(-c2cn(Cc3ccc(F)cc3)nn2)cc1
inhibition in vivo at 10 mg/kg (Rattus norvegicus [1]): 28.8%
inhibition in vivo at 3 mg/kg (Rattus norvegicus [2]): 21.7%
inhibition (Rattus norvegicus [3]): Dose-dependent effect
inhibition in vivo at 1 mg/kg (Rattus norvegicus [4]): 20.8%
